According to patent US20070099851A1, “Stable analogues of ribose-1-phosphate and methods for treating diabetes and other metabolic disorders” (priority 2004, published 2007):
Where two headings read alike, the source gives them in different places. Marks after values point to notes of the source that are not given here.

Tests used:
[1] = biological target: T1, human purine nucleoside phosphorylase (Homo sapiens, UniProt P00491); conditions: background statement; cited from earlier work
T1 sequence (P00491 1-289): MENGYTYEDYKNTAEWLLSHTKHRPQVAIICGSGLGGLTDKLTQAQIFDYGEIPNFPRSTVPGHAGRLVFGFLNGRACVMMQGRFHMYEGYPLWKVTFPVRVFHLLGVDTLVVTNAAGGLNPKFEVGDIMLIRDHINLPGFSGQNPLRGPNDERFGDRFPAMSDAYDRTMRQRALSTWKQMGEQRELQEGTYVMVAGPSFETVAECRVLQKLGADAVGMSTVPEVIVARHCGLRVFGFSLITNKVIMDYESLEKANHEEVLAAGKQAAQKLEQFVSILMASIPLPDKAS

Zucker (fa/fa) rats = test: Glucose tolerance test in diabetic Zucker (fa/fa) rats; assay type: in vivo, rat; conditions: for Blood Glucose at 120 minutes: fasted Zucker (fa/fa) rats, IP glucose 1.5 g/kg
Procedure: Thirty-six 16 wk old male Zucker (fa/fa) rats were randomly assigned to one of the following groups: • 1. Vehicle (0.9% NaCl) • 2. Metformin—320 mg/kg • 3. Compound 1.1—10 mg/kg Acid • 4. Compound 1.1—100 mg/kg Acid • 5. Compound 3.1—10 mg/kg Ester • 6. Compound 3.1—100 mg/kg Ester
Animals were fasted for 16-18 hr and lightly anesthetized with a mixture of ketamine/xylazine at a dose of 0.5 ml/kg (45 mg/kg ketamine, 5 mg/kg xylazine). Animals received their respective treatments via IP injection (1.5 ml/kg) followed by an IP injection of glucose at 1.5 g/kg. Blood glucose was measured at 0, 30, 60, 90, and 120 minutes post-glucose.

HL-60, Leukemia = test: Anticancer activity, HL-60; assay type: cell-based
[2] = biological target: T2, Fructose-1,6-bisphosphatase (Homo sapiens, UniProt P09467); conditions: background statement; cited from earlier work
T2 sequence (P09467 2-338 limits assumed): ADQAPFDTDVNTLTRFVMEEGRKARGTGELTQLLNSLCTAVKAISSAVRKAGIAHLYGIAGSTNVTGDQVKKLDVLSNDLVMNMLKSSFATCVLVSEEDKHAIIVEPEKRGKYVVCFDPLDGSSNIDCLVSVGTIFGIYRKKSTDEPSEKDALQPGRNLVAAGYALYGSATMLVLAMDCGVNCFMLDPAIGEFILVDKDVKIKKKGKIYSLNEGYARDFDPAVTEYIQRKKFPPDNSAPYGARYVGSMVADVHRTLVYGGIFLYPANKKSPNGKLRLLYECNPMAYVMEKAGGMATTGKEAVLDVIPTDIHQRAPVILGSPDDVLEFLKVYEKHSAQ

FAO hepatoma cells [3] = test: Inhibition of glucose production in FAO cells; assay type: cell-based; conditions: for Percent inhibition of glucose production: FAO cells
Description: (§1) Studies of Compound 2 have shown that it activates 6-phosphofructo-1-kinase (6PF1K) and inhibits fructose-1,6-bisphosphatase (FBPase). […] It is well known that by increasing the rate of glycolysis, the rate of gluconeogenesis decreases (Hanson et al. (1984) J. Biol. Chem. 259, 218-223).

FAO hepatoma cells [4] = conditions: background statement; cited from earlier work
[5] = biological target: T2, Fructose-1,6-bisphosphatase; test: Inhibition of fructose-1,6-bisphosphatase; assay type: biochemical
Description: as §1

6-phosphofructo-1-kinase [6] = test: Activation of 6-phosphofructo-1-kinase; assay type: biochemical; conditions: for Ka: concentration giving half-maximal activation
Description: as §1
Ka is the concentration of substrate giving half-maximal activation.

6-phosphofructo-1-kinase [7] = conditions: background statement; cited from earlier work
[8] = tested on: INS-1 clonal pancreatic B-cells; test: Stimulation of insulin secretion in INS-1 cells; assay type: cell-based; conditions: for Insulin release greater compared to controls: 3 mM glucose, 500 μM compound, overnight; for Activating effect on insulin release, in words: 16 mM glucose
Procedure: INS-1 clonal pancreatic B-cells were grown in well plates or T-25 flasks incubated overnight with INS-1 cell media with 3 mM glucose and 500 μM of compound 3 or compound 4. Insulin samples were collected for 10 minutes at 18 second intervals. Insulin release was greater for both compound 3.1 and compound 4.1 compared to controls, by about 50 percent, under these conditions. At 16 mM glucose the activating effect disappeared.

HTC hepatoma cells = test: Inhibition of intracellular lipid synthesis in HTC hepatoma cells; assay type: cell-based; conditions: 500 μM; for Cholesterol: control 48; for Triglyceride: control 60
[9] = biological target: T3, calf spleen purine nucleoside phosphorylase (Bos taurus, UniProt P55859); test: Inhibition of calf spleen purine nucleoside phosphorylase (cPNP); assay type: biochemical; conditions: for cPNP activity: 27 μM compound
T3 construct: from tissue; host or cells: calf spleen
T3 sequence (P55859 1-289): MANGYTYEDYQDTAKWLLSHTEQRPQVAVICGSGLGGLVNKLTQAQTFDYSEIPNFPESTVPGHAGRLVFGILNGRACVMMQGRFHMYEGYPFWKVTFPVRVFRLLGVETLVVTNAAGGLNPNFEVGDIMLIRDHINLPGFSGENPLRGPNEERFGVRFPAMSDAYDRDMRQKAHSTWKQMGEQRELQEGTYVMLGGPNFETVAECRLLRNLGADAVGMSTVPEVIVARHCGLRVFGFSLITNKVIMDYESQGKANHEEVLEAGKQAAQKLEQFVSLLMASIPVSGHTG
Procedure: Compound 4.1 (27 μM) was incubated with calf spleen purine nucleoside phosphorylase with increasing concentrations of inorganic phosphate.

Rh1, Ewing Sarcoma = test: Anticancer activity, Rh1; assay type: cell-based

In the case of O=P(O)(O)OC1O[C@H](CI)[C@@H](O)[C@H]1O (stereo partly shown) [5-iodo-ribose-1-phosphate], the “Effect on human purine nucleoside phosphorylase, in words” value [1] is given as “inhibits”.

For O=P(O)(O)CC1OC(CO)C(O)C1O (stereo not shown) [Compound 1.1, ribose-1-methylenephosphonate], the “Blood Glucose at 120 minutes” value (Zucker (fa/fa) rats; 10 mg/kg IP) was 460 mg/dL, the “Blood Glucose at 120 minutes” value (Zucker (fa/fa) rats; 100 mg/kg IP) was 400 mg/dL and the “Effect on blood glucose levels, in words” value (Zucker (fa/fa) rats; fasted diabetic Zucker (fa/fa), injected, glucose challenge) was “reduce blood glucose levels”. The IC50 (HL-60, Leukemia) was 170 µM.

For O=P(O)(O)CC1OC(COP(=O)(O)O)C(O)C1O (stereo not shown) [Compound 2.1, 5-phosphoribosyl-1-methylenephosphonate], the Ki [2] is given as 85 µM, the “Blood Glucose at 120 minutes” value (Zucker (fa/fa) rats; 10 mg/kg IP) is given as 500 mg/dL and the “Blood Glucose at 120 minutes” value (Zucker (fa/fa) rats; 100 mg/kg IP) is given as 500 mg/dL. The “Percent inhibition of glucose production” value (FAO hepatoma cells [3]; 60 μM) was 20 ± 15%, the “Percent inhibition of glucose production” value (FAO hepatoma cells [3]; 100 μM (last row of the table)) was 60 ± 15% and the “Percent inhibition of glucose production” value (FAO hepatoma cells [3]; 125 μM) was 35 ± 10%. The “Percent inhibition of glucose production” value (FAO hepatoma cells [3]; 250 μM) was 40 ± 10%, the “Percent inhibition of glucose production” value (FAO hepatoma cells [3]; 500 μM) was 35 ± 10% and the “Glucose production in FAO hepatoma cells, in words” value (FAO hepatoma cells [3]; incubated with FAO hepatoma cells) was “inhibits glucose production”. The “Glucose production in cultured hepatoma cells (FAO), in words” value (FAO hepatoma cells [4]) was “inhibit glucose production”, the “Effect on fructose-1,6-bisphosphatase (FBPase), in words” value [5] was “inhibits” and the Ki ([5]; At 5 μM Fru-1,6-bisphosphate) was 87 µM. The “Maximum Decrease in Activity” value ([5]; At 5 μM Fru-1,6-bisphosphate) was 50%, the Ki ([5]; At 20 μM Fru-1,6-bisphosphate) was 87 µM and the “Maximum Decrease in Activity” value ([5]; At 20 μM Fru-1,6-bisphosphate) was 50%. The “Effect on 6-phosphofructo-1-kinase (6PF1K), in words” value (6-phosphofructo-1-kinase [6]) was “activates”, the Ka (6-phosphofructo-1-kinase [6]) was 6.5 µM and the Ka (6-phosphofructo-1-kinase [7]) was 6.5 µM.

In the case of CCOP(=O)(CC1OC(CO)C(O)C1O)OCC (stereo not shown) [Compound 3.1, ribose-1-methylenediethylphosphonate], the “Insulin release greater compared to controls” value [8] is reported as “about 50%” and the “Activating effect on insulin release, in words” value [8] is reported as “disappeared”.

With O=P(O)(O)C(F)(F)C1OC(CO)C(O)C1O (stereo not shown) [Compound 4.1, ribose-1-difluoromethylenephosphonate] the Cholesterol (HTC hepatoma cells) was 39 μg/mg protein, the Triglyceride (HTC hepatoma cells) was 44 μg/mg protein and the “Decrease in cholesterol levels compared to control” value (HTC hepatoma cells; overnight) was ~20%. The “Decrease in triglyceride levels compared to control” value (HTC hepatoma cells; overnight) was 26%, the cPNP activity ([9]; Pi 20 μM, control 170) was 18* arbitrary units and the cPNP activity ([9]; Pi 50 μM, control 237) was 31 arbitrary units. For the same molecule, the cPNP activity ([9]; Pi 200 μM, control 298) was 96 arbitrary units, the cPNP activity ([9]; Pi 1500 μM, control 327) was 176 arbitrary units and the “Mode of inhibition of cPNP, in words” value ([9]; 27 μM, increasing inorganic phosphate) was “likely a competitive inhibitor of cPNP”. For the same molecule, the IC50 (Rh1, Ewing Sarcoma) was 170 µM, the “Insulin release greater compared to controls” value [8] was “about 50%” and the “Activating effect on insulin release, in words” value [8] was “disappeared”.

In the case of CN(C)C(=N)N=C(N)N [Metformin, reference compound], the Cholesterol (HTC hepatoma cells) is reported as 38 μg/mg protein, the Triglyceride (HTC hepatoma cells) is reported as 42 μg/mg protein and the “Blood Glucose at 120 minutes” value (Zucker (fa/fa) rats; 320 mg/kg IP) is reported as 400 mg/dL.

Work on O=P(O)(O)OC[C@H]1O[C@@](CO)(OP(=O)(O)O)[C@@H](O)[C@@H]1O [fructose-2,6-bisphosphate, reference compound] yielded a Ka (6-phosphofructo-1-kinase [6]) of 0.09 µM.

In the case of O=P(O)(O)OC[C@H]1OC(OP(=O)(O)O)[C@H](O)[C@@H]1O (stereo partly shown) [ribose-1,5-bisphosphate, reference compound], the Ki ([5]; At 5 μM Fru-1,6-bisphosphate) is reported as 87 µM, the “Maximum Decrease in Activity” value ([5]; At 5 μM Fru-1,6-bisphosphate) is reported as 50% and the Ki ([5]; At 20 μM Fru-1,6-bisphosphate) is reported as 87 µM. The “Maximum Decrease in Activity” value ([5]; At 20 μM Fru-1,6-bisphosphate) was 50% and the Ka (6-phosphofructo-1-kinase [6]) was 3.5 µM.
